In patent publication US4061645A, “2-Trichloromethyl-5-methylsulfinyl-1,3,4-thiadiazole” (Schering Aktiengesellschaft, priority 1972, dated 1977):
Read-outs that look alike come from different tables or passages of the source.

Assays:
Rhizoctonia solani = test: Limit concentration of soil-fungicidal effectiveness, Rhizoctonia solani, infested soil seeded with peas (Example 1); assay type: in vivo; conditions: soil, 480 h, read-out: Limit concentration of the fungicidal effectiveness
Method: Limit concentrations of the soil-fungicidal effectiveness at homogeneous mixture of the products with the infested soil. Basic condition in the evaluation are a sound root formation without fungus necroses and germination of the seed of at least 90% compared with the result obtained in steamed soil. Per concentration there were seeded 25 grains of peas of the variety "Miracle of Kelvedon" (marrow pea) without a waiting period. The cultivation time in the tests was 20 to 23 days at a temperature of 22°-25° C. Four commercial products were included in the test series.
Rhizoctania solani: -- Steamed compost soil was inoculated with mycelium of Rhizoctonia solani.

Asperqilus niger = test: Agar test (Example 7), Aspergillus; assay type: cell-based; conditions: 10 ppm; 5 days at 22° C; control 100
Method: (§1) The fungicidal action of the agents according to the invention was tested in artificial nutrient media against plant-pathogenic fungi in Petri dishes (agar test). The procedure was to sterilize the medium consisting of 2% malt extract and 1.5% agar-agar powder. Before the solidification of the medium, the active substances were added to it, mixing thoroughly, so that the medium received 10 parts of active substance per million (ppm). After the solidification of the medium, the latter was inoculated with a platinum dropper which contained 100 spores each of the fungi to be tested, and after five days at 22° C, an evaluation was made by measuring the diameter of the colonies in mm.

[1] = tested on: Colletotrichum gloeosporioides; test: Agar test (Example 7), Colletotrichum; assay type: cell-based; conditions: 10 ppm; 5 days at 22° C; control 100
Method: as §1

Botrytis cinerea = test: Agar test (Example 7), Botrytis; assay type: cell-based; conditions: 10 ppm; 5 days at 22° C; control 100
Method: as §1

Helminthosporium sativum = test: Agar test (Example 7), Helminthosporium; assay type: cell-based; conditions: 10 ppm; 5 days at 22° C; control 100
Method: as §1

Stemphylium ilicis = test: Agar test (Example 7), Stemphylium; assay type: cell-based; conditions: 10 ppm; 5 days at 22° C; control 100
Method: as §1

Pythium ultimum = Pythium ultimum infested compost soil, marrow peas (Example 2); assay type: in vivo; conditions: for Weight of fresh plant: 3 weeks; for Number of sound peas after 3 wks.: of 25 grains
Excerpt: Steamed compost soil was inoculated with mycelium of Pythium ultimum.

[2] = tested on: Fusarium oxysporum f. callistephi; test: Fusarium infested compost soil, Callistephus chinesis seedlings (Example 5); assay type: in vivo; conditions: of 4 seedlings
Excerpt: Steamed compost soil was inoculated with a spore suspension of Fusarium oxysporum f. callistephi. After homogeneous mixture of the products with the infested soil, the products were present as 20% powder preparations, and after a waiting period of 8 days, there were set out per concentration 4 seedlings of Callistephus chinesis, master aster "Sun Ray" as host plants.

[3] = 10 mg active ingr. per liter of soil
[4] = 20 mg active ingr. per liter of soil
[5] = 30 mg active ingr. per liter of soil
[6] = 200 mg active ingr. per liter of soil

C[S+]([O-])c1nnc(CCl)s1 (stereo not shown) [Compound 2, 2-chloromethyl-5-methylsulfinyl-1,3,4-thiadiazole]
minimal effective concentration (Rhizoctonia solani; 20 to 23 days, 22°-25° C): 50 µg/mL

CC(C)[S+]([O-])c1nnc(C(Cl)Cl)s1 (stereo not shown) [Compound 6, 2-dichloromethyl-5-isopropylsulfinyl-1,3,4-thiadiazole]
minimal effective concentration (Rhizoctonia solani; 20 to 23 days, 22°-25° C): 50 µg/mL

CCCCC[S+]([O-])c1nnc(C(Cl)Cl)s1 (stereo not shown) [Compound 7, 2-dichloromethyl-5-amylsulfinyl-1,3,4-thiadiazole]
diameter of the colonies (Asperqilus niger): 0 mm
minimal effective concentration (Rhizoctonia solani; 20 to 23 days, 22°-25° C): 50 µg/mL
diameter of the colonies [1]: 0 mm
diameter of the colonies (Botrytis cinerea): 22 mm
diameter of the colonies (Helminthosporium sativum): 0 mm
diameter of the colonies (Stemphylium ilicis): 0 mm

CCC[S+]([O-])c1nnc(C(Cl)(Cl)Cl)s1 (stereo not shown) [Compound 10, 2-trichloromethyl-5-propylsulfinyl-1,3,4-thiadiazole]
diameter of the colonies (Asperqilus niger): 0 mm
minimal effective concentration (Rhizoctonia solani; 20 to 23 days, 22°-25° C): 20 µg/mL
diameter of the colonies [1]: 0 mm
diameter of the colonies (Botrytis cinerea): 0 mm
diameter of the colonies (Helminthosporium sativum): 0 mm
diameter of the colonies (Stemphylium ilicis): 0 mm

CC(C)[S+]([O-])c1nnc(C(Cl)(Cl)Cl)s1 (stereo not shown) [Compound 11, 2-trichloromethyl-5-isopropylsulfinyl-1,3,4-thiadiazole]
minimal effective concentration (Rhizoctonia solani; 20 to 23 days, 22°-25° C): 50 µg/mL

CCCC[S+]([O-])c1nnc(C(Cl)(Cl)Cl)s1 (stereo not shown) [Compound 12, 2-trichloromethyl-5-butylsulfinyl-1,3,4-thiadiazole]
diameter of the colonies (Asperqilus niger): 0 mm
minimal effective concentration (Rhizoctonia solani; 20 to 23 days, 22°-25° C): 50 µg/mL
diameter of the colonies [1]: 0 mm
diameter of the colonies (Botrytis cinerea): 0 mm
diameter of the colonies (Helminthosporium sativum): 0 mm
diameter of the colonies (Stemphylium ilicis): 0 mm

CCCCCCC[S+]([O-])c1nnc(C(Cl)(Cl)Cl)s1 (stereo not shown) [Compound 13, 2-trichloromethyl-5-heptylsulfinyl-1,3,4-thiadiazole]
diameter of the colonies (Asperqilus niger): 0 mm
minimal effective concentration (Rhizoctonia solani; 20 to 23 days, 22°-25° C): 200 µg/mL
diameter of the colonies [1]: 0 mm
diameter of the colonies (Botrytis cinerea): 13 mm
diameter of the colonies (Helminthosporium sativum): 0 mm
diameter of the colonies (Stemphylium ilicis): 0 mm

CCCCCCCC[S+]([O-])c1nnc(C(Cl)(Cl)Cl)s1 (stereo not shown) [Compound 14, 2-trichloromethyl-5-octylsulfinyl-1,3,4-thiadiazole]
minimal effective concentration (Rhizoctonia solani; 20 to 23 days, 22°-25° C): 100 µg/mL

CS(=O)(=O)c1nnc(CCl)s1 [Compound 15, 2-chloromethyl-5-methylsulfonyl-1,3,4-thiadiazole]
minimal effective concentration (Rhizoctonia solani; 20 to 23 days, 22°-25° C): 100 µg/mL
Weight of fresh plant (Pythium ultimum; [3]): 20 g
Number of sound peas after 3 wks. (Pythium ultimum; [3]): 22
Weight of fresh plant (Pythium ultimum; [4]): 20 g
Number of sound peas after 3 wks. (Pythium ultimum; [4]): 23
Weight of fresh plant (Pythium ultimum; [5]): 20 g
Number of sound peas after 3 wks. (Pythium ultimum; [5]): 24

CC(C)S(=O)(=O)c1nnc(CCl)s1 [Compound 16, 2-chloromethyl-5-isopropylsulfonyl-1,3,4-thiadiazole]
minimal effective concentration (Rhizoctonia solani; 20 to 23 days, 22°-25° C): 200 µg/mL

CC(C)S(=O)(=O)c1nnc(C(Cl)Cl)s1 [Compound 20, 2-dichloromethyl-5-isopropylsulfonyl-1,3,4-thiadiazole]
minimal effective concentration (Rhizoctonia solani; 20 to 23 days, 22°-25° C): 50 µg/mL

CC(C)S(=O)(=O)c1nnc(C(Cl)(Cl)Cl)s1 [Compound 24, 2-trichloromethyl-5-isopropylsulfonyl-1,3,4-thiadiazole]
diameter of the colonies (Asperqilus niger): 0 mm
minimal effective concentration (Rhizoctonia solani; 20 to 23 days, 22°-25° C): 30 µg/mL
diameter of the colonies [1]: 0 mm
diameter of the colonies (Botrytis cinerea): 0 mm
diameter of the colonies (Helminthosporium sativum): 0 mm
diameter of the colonies (Stemphylium ilicis): 0 mm

CCCCCS(=O)(=O)c1nnc(C(Cl)(Cl)Cl)s1 [Compound 26, 2-trichloromethyl-5-amylsulfonyl-1,3,4-thiadiazole]
diameter of the colonies (Asperqilus niger): 0 mm
minimal effective concentration (Rhizoctonia solani; 20 to 23 days, 22°-25° C): 25 µg/mL
diameter of the colonies [1]: 0 mm
diameter of the colonies (Botrytis cinerea): 0 mm
diameter of the colonies (Helminthosporium sativum): 0 mm
diameter of the colonies (Stemphylium ilicis): 0 mm

CS(=O)(=O)c1nnc(CBr)s1 [Compound 30, 2-bromomethyl-5-methylsulfonyl-1,3,4-thiadiazole]
minimal effective concentration (Rhizoctonia solani; 20 to 23 days, 22°-25° C): 150 µg/mL
Weight of fresh plant (Pythium ultimum; [3]): 18 g
Number of sound peas after 3 wks. (Pythium ultimum; [3]): 21
Weight of fresh plant (Pythium ultimum; [4]): 24 g
Number of sound peas after 3 wks. (Pythium ultimum; [4]): 24
Weight of fresh plant (Pythium ultimum; [5]): 18 g
Number of sound peas after 3 wks. (Pythium ultimum; [5]): 22

CCS(=O)(=O)c1nnc(CBr)s1 [Compound 31, 2-bromomethyl-5-ethylsulfonyl-1,3,4-thiadiazole]
minimal effective concentration (Rhizoctonia solani; 20 to 23 days, 22°-25° C): > 200 µg/mL

C[S+]([O-])c1nnc(CF)s1 (stereo not shown) [Compound 33, 2-fluoromethyl-5-methylsulfinyl-1,3,4-thiadiazole]
minimal effective concentration (Rhizoctonia solani; 20 to 23 days, 22°-25° C): 20 µg/mL

CS(=O)(=O)c1nnc(CF)s1 [Compound 34, 2-fluoromethyl-5-methylsulfonyl-1,3,4-thiadiazole]
minimal effective concentration (Rhizoctonia solani; 20 to 23 days, 22°-25° C): 30 µg/mL

C[S+]([O-])c1nnc(C(F)(F)F)s1 (stereo not shown) [Compound 35, 2-trifluoromethyl-5-methylsulfinyl-1,3,4-thiadiazole]
minimal effective concentration (Rhizoctonia solani; 20 to 23 days, 22°-25° C): 20 µg/mL

CC[S+]([O-])c1nnc(C(F)(F)F)s1 (stereo not shown) [Compound 36, 2-trifluoromethyl-5-ethylsulfinyl-1,3,4-thiadiazole]
minimal effective concentration (Rhizoctonia solani; 20 to 23 days, 22°-25° C): 20 µg/mL

CC(C)C[S+]([O-])c1nnc(C(F)(F)F)s1 (stereo not shown) [Compound 37, 2-trifluoromethyl-5-isobutylsulfinyl-1,3,4-thiadiazole]
minimal effective concentration (Rhizoctonia solani; 20 to 23 days, 22°-25° C): 100 µg/mL

CCCCC[S+]([O-])c1nnc(C(F)(F)F)s1 (stereo not shown) [Compound 38, 2-trifluoromethyl-5-pentylsulfinyl-1,3,4-thiadiazole]
minimal effective concentration (Rhizoctonia solani; 20 to 23 days, 22°-25° C): 40 µg/mL

CCCCCC[S+]([O-])c1nnc(C(F)(F)F)s1 (stereo not shown) [Compound 39, 2-trifluoromethyl-5-hexylsulfinyl-1,3,4-thiadiazole]
minimal effective concentration (Rhizoctonia solani; 20 to 23 days, 22°-25° C): 40 µg/mL

CCS(=O)(=O)c1nnc(C(F)(F)F)s1 [Compound 40, 2-trifluoromethyl-5-ethylsulfonyl-1,3,4-thiadiazole]
minimal effective concentration (Rhizoctonia solani; 20 to 23 days, 22°-25° C): 20 µg/mL

CC(C)S(=O)(=O)c1nnc(C(F)(F)F)s1 [Compound 41, 2-trifluoromethyl-5-isopropylsulfonyl-1,3,4-thiadiazole]
minimal effective concentration (Rhizoctonia solani; 20 to 23 days, 22°-25° C): 20 µg/mL

CC(C)CS(=O)(=O)c1nnc(C(F)(F)F)s1 [Compound 42, 2-trifluoromethyl-5-isobutylsulfonyl-1,3,4-thiadiazole]
minimal effective concentration (Rhizoctonia solani; 20 to 23 days, 22°-25° C): 100 µg/mL

CCCCCCS(=O)(=O)c1nnc(C(F)(F)F)s1 [Compound 43, 2-trifluoromethyl-5-hexylsulfonyl-1,3,4-thiadiazole]
minimal effective concentration (Rhizoctonia solani; 20 to 23 days, 22°-25° C): 50 µg/mL

CCCCCCCS(=O)(=O)c1nnc(C(F)(F)F)s1 [Compound 44, 2-trifluoromethyl-5-heptylsulfonyl-1,3,4-thiadiazole]
minimal effective concentration (Rhizoctonia solani; 20 to 23 days, 22°-25° C): 50 µg/mL

CS(=O)(=O)c1nnc(C(F)(F)C(F)(F)F)s1 [Compound 45, 2-pentafluoroethyl-5-methylsulfonyl-1,3,4-thiadiazole]
minimal effective concentration (Rhizoctonia solani; 20 to 23 days, 22°-25° C): > 100 µg/mL

CS(=O)(=O)c1nnc(C(F)(F)C(F)(F)C(F)(F)F)s1 [Compound 46, 2-heptafluoropropyl-5-methylsulfonyl-1,3,4-thiadiazole]
minimal effective concentration (Rhizoctonia solani): 100 µg/mL

CC(Cl)(Cl)c1nnc(S(C)(=O)=O)s1 [Compound 47, 2-(1,1-dichloroethyl)-5-methylsulfonyl-1,3,4-thiadiazole]
minimal effective concentration (Rhizoctonia solani; 20 to 23 days, 22°-25° C): 50 µg/mL

CCC(Cl)c1nnc([S+](C)[O-])s1 (stereo not shown) [Compound 48, 2-(1-chloropropyl)-5-methylsulfinyl-1,3,4-thiadiazole]
minimal effective concentration (Rhizoctonia solani; 20 to 23 days, 22°-25° C): 100 µg/mL

CCC(Cl)c1nnc(S(C)(=O)=O)s1 (stereo not shown) [Compound 49, 2-(1-chloropropyl)-5-methylsulfonyl-1,3,4-thiadiazole]
minimal effective concentration (Rhizoctonia solani; 20 to 23 days, 22°-25° C): 50 µg/mL

CC(Br)c1nnc(S(C)(=O)=O)s1 (stereo not shown) [Compound 50, 2-(1-bromoethyl)-5-methylsulfonyl-1,3,4-thiadiazole]
minimal effective concentration (Rhizoctonia solani; 20 to 23 days, 22°-25° C): 100 µg/mL

CC(C)C(Br)c1nnc(S(C)(=O)=O)s1 (stereo not shown) [Compound 51, 2-(1-bromisobutyl)-5-methylsulfonyl-1,3,4-thiadiazole]
minimal effective concentration (Rhizoctonia solani; 20 to 23 days, 22°-25° C): 50 µg/mL

O=C1C2CC=CCC2C(=O)N1SC(Cl)(Cl)Cl (stereo not shown) [N-(trichloromethylthio)-cyclohex-4-ene-1,2-dicarboximide, reference compound]
minimal effective concentration (Rhizoctonia solani): 300 µg/mL
Number of attacked plants after 3 weeks ([2]; 50 mg active ingredient per liter of soil): 4
Number of attacked plants after 3 weeks ([2]; 100 mg active ingredient per liter of soil): 4
Number of attacked plants after 3 weeks ([2]; 200 mg active ingredient per liter of soil): 4
Weight of fresh plant (Pythium ultimum; [6]): 6 g
Number of sound peas after 3 wks. (Pythium ultimum; [6]): 13
